Measured values: the NIST ThermoML archive (doi:10.1021/je050151n)
Several values for one entry are separate records, joined by “and”; a condition that tells them apart may be missing. Identical values can stand only once.

Key:
[1] = 101.33 kPa, Liquid; for mass density: Vibrating tube method; for viscosity: Vibrating wire viscometry
[2] = refractive index (Na D-line) (dimensionless); conditions: 293.15 K; 101.33 kPa; Liquid; Standard Abbe refractometry

CC(C)CCCCCCCOC(=O)c1ccccc1C(=O)OCCCCCCCC(C)C
[1]
Conditions | mass density [kg/m3] | viscosity
283.16 K | 973.52 | 267.36 mPa·s
288.26 K | 969.85 | 176.04 mPa·s
293.21 K | 966.38 | 123.07 mPa·s and 122.75 mPa·s
298.24 K | 962.82 | 87.8 mPa·s
303.21 K | 959.3 | 64.84 mPa·s
308.2 K | 955.78 | 48.73 mPa·s
313.21 K | 952.22 | 37.57 mPa·s

Conditions | refractive index
[2] | 1.4845
